As usually defined, the Ki is the dissociation constant of the complex between target and ligand, obtained from inhibition or displacement.

Values joined by “and” are separate entries in the source; they are usually repeats but may differ in a detail not shown here. Equal entries are not always repeated. Where two headings read alike, the source gives them in different places. Bounds are passed on as bounds.

Experimental findings from patent publication US6344179B1, “Fluoralkenyl nortropanes” (Emory University, priority 1999, dated 2002) are described below.

One series has as its target T1, human DAT (Homo sapiens, UniProt Q01959).
T1 construct: expressed in transfected cells
Put plainly: Competitive binding in transfected cell lines, [3H]WIN 35428.

The target of the next series is T2, human SERT (Homo sapiens, UniProt P31645).
T2 construct: expressed in transfected cells
Put plainly: Competitive binding in transfected cell lines, [3H]Citalopram.

The target of series [1] is T3, norepinephrine transporter (Homo sapiens, UniProt P23975).
T3 construct: expressed in transfected cells
Put plainly: Competitive binding in transfected cell lines, [3H]Nisoxetine.

The next series relates to striatal DAT. The series is described as follows: PET imaging in awake rhesus monkeys. The series is classed as in vivo, rhesus monkey. The method, then:
The regional kinetics of [^18F] […] Both [^18F] […] [^18F] […] The peak uptake ratio of striatumwcerebellum was 4:1 at 20 minutes for [^18F] […] 6d. The in vivo ratio of [1^18F] […] FECNT, 5:1. [^18F]

Series [2] is described as follows: In vivo regional brain tissue distribution of 18F-labeled ligands in rats. Set-up: species or system Sprague Dawley rats. Conditions: rat; for Regional uptake of radioactivity, Cerebellum / Regional uptake of radioactivity, Cortex (Cx) / Regional uptake of radioactivity, Striatum / S/Cereb (striatum to cerebellum ratio) / S/Cx (striatum to cortex ratio) / Uptake of radioactivity, Blood / Uptake of radioactivity, Brain: i.v., 18F-labeled. From the text: The in vivo regional brain tissue distribution of [^18F]

For a further series, the target named is T4, rat brain DAT (Rattus norvegicus, UniProt P23977).
T4 construct: from tissue; host or cells: brain of living male Sprague Dawley rats (striatum, cortex, cerebellum dissected)
The series is described as follows: In vivo specificity: RTI-113 block before the 18F ligand in rats. Conditions: for effect of RTI-113 on uptake in the striatum: RTI-113 5 mg/kg i.v. 15 minutes prior, 60 minutes. The method, then: To determine the in vivo specificity of FBNT analogs [^18F] […] 6a, 6d and 6e. The rats were sacrificed 60 minutes after injection of [^18F] […] 6a, 6d and 6e, in the DAT transporter rich striatum.

The mark [3] stands for this setting: [3H]WIN 35428 as reference, cells transfected with human DAT, read-out: DAT, Ki.
The mark [4] stands for this setting: [3H]Nisoxetine, transfected cell lines, read-out: NET, Ki.
Setting [5] is: [3H]Citalopram, cells transfected with human SERT, read-out: 5-HTT, Ki.
Setting [6] is: at 60 minutes compared to 5 minutes post injection.
Setting [7] is: at 120 minutes compared to 5 minutes post injection.
Where [8] appears, read: 60 min, 5 mg/kg RTI-113 i.v. 15 minutes prior.

T4 sequence (P23977 whole entry): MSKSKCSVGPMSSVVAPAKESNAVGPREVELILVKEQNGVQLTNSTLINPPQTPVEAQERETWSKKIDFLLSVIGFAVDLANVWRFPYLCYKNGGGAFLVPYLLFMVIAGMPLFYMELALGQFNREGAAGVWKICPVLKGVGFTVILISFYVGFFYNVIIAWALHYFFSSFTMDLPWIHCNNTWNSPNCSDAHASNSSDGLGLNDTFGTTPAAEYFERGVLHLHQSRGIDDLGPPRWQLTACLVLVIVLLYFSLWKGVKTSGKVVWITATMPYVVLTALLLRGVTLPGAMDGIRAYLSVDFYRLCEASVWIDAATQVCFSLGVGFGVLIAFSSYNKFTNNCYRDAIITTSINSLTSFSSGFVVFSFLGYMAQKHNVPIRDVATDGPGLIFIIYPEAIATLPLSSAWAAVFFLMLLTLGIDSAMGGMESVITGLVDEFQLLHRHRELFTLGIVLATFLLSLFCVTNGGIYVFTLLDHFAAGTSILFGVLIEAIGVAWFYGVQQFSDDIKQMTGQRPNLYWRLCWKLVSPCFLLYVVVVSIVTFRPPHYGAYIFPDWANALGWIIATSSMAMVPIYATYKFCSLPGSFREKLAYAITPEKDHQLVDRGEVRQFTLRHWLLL
T3 sequence (P23975 whole entry): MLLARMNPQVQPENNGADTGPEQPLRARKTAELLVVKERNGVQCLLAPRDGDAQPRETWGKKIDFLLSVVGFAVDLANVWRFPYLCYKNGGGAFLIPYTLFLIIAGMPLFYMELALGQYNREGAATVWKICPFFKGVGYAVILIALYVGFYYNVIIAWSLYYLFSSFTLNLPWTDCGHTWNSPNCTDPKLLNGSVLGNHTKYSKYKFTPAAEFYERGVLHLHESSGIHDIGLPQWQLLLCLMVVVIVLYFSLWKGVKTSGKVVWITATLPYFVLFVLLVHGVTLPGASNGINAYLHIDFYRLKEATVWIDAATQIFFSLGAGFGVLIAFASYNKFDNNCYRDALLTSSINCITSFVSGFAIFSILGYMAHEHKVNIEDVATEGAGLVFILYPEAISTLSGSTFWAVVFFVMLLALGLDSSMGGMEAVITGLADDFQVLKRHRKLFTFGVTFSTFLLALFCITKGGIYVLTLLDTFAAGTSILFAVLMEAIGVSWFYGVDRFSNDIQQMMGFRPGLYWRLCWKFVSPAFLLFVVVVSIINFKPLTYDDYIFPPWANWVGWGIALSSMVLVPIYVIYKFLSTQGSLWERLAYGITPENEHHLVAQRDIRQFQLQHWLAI
T2 sequence (P31645 whole entry): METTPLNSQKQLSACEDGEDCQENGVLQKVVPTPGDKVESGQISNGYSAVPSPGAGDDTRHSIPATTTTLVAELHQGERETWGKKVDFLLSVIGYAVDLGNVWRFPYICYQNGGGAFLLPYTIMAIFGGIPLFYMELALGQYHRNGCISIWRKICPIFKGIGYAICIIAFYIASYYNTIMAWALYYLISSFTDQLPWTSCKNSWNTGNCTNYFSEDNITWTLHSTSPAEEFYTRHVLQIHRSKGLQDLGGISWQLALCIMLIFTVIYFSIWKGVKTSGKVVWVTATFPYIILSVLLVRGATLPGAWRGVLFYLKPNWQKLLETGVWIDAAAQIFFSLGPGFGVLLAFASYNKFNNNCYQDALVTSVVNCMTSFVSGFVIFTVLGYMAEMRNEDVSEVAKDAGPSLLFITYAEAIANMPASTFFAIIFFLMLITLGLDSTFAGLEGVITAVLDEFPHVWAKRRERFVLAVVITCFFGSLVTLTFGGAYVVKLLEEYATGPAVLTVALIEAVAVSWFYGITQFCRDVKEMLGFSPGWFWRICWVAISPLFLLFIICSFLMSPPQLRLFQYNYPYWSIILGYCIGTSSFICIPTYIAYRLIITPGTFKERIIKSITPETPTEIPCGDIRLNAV
T1 sequence (Q01959 whole entry): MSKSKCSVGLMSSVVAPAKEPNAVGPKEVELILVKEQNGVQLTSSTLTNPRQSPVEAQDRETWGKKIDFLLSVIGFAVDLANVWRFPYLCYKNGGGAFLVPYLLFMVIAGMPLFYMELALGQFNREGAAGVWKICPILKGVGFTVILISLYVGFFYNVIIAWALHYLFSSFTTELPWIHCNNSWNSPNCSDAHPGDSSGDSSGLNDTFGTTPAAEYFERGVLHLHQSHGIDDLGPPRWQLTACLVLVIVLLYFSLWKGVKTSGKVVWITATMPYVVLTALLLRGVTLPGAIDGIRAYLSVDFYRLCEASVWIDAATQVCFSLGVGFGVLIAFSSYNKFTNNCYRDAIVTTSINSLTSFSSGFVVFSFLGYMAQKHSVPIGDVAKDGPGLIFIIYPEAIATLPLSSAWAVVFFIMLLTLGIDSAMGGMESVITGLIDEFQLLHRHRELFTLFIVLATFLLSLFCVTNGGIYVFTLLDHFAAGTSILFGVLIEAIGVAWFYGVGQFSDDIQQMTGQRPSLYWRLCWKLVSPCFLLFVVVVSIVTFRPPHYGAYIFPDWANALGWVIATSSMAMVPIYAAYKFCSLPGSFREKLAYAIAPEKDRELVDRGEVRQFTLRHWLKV

Turning to `COC(=O)[C@H]1[C@@H](c2ccc(I)cc2)C[C@@H]2CC[C@H]1N2C/C=C/CF` [6c, N-((E)-4-fluorobut-2-en-1-yl)-2β-carbomethoxy-3β-(4-iodophenyl)nortropane], the Ki on human DAT came to 0.17 nM; at human SERT, 0.21 nM.

Regarding `COC(=O)[C@H]1[C@@H](c2ccc(Cl)cc2)C[C@@H]2CC[C@H]1N2C/C=C/I` [MMG/142, IPT, reference compound], the Ki was found to be 1.16 nM at human DAT, 48.7 nM in series [1] and 4.9 nM on human SERT.

For the compound `COC(=O)[C@H]1[C@@H](c2ccc(Cl)cc2)C[C@@H]2CC[C@H]1N2C/C=C\CF` [6f, N-((Z)-4-fluorobut-2-en-1-yl)-2β-carbomethoxy-3β-(4-chlorophenyl) nortropane], the “initial uptake in striatum and cerebellum” value in the series with striatal DAT (awake rhesus monkeys) was “high initial uptake in the striatum and very little uptake in the cerebellum”.

As for `COC(=O)[C@H]1[C@@H](c2ccc(F)cc2)C[C@@H]2CC[C@H]1N2C/C=C/I` [Altropane, reference compound], the Ki is 0.78 nM on human DAT (setting [3]), > 10000 nM in series [1] (setting [4]) and 55.4 nM on human SERT (setting [5]).

`COC(=O)[C@H]1[C@@H](c2ccc(F)cc2)C[C@@H]2CC[C@H]1N2C/C=C/CF` [6e, N-((E)-4-fluorobut-2-en-1-yl)-2β-carbomethoxy-3β-(4-fluorophenyl)nortropane]: the Ki on human DAT (setting [3]) was found to be 1.7 nM. Also, the figures for the “clearance from striatal tissue” value in series [2] (setting [6]) and in series [2] (setting [7]) were 70% and 85%, respectively. For the same compound, the “effect of RTI-113 on uptake in the striatum” value at rat brain DAT is given as “significantly blocked”. The “time at which transient equilibrium in the striatum was reached” value in the series on striatal DAT (awake rhesus monkey, post injection) is 30 min and 20 min. Also, the “early transient equilibrium at the striatal DAT” value in the series with striatal DAT (awake rhesus monkeys, PET) was “achieved an early transient equilibrium”.

Turning to “N-((E)-4-fluorobut-2-en-1-yl)-2β-carbomethoxy-3β-phenylnortropane [6a]”, the “selectivity for DAT over SERT” value at human DAT (from binding in transfected cells) stood at 14 times. The “selectivity for DAT” value at human DAT (in vitro competitive binding) was “very high selectivity”. Besides, the inhibition constant (Ki) in series [1] (setting [4]) is > 10000 nM. Also, at human SERT (setting [5]), the Ki is 102 nM. Also, the “clearance from striatal tissue” value in series [2] (setting [6]) was found to be 75%. In addition, the “clearance from striatal tissue” value in series [2] (setting [7]) turned out to be 90%. Moreover, in series [2] (5 min), the “Regional uptake of radioactivity, Cerebellum” value (from here on “Regional uptake … Cerebellum”) amounted to 0.55 % dose/g; the “Regional uptake of radioactivity, Cortex (Cx)” value (shortened to “Regional uptake … (Cx)”) is recorded as 0.84 % dose/g; the “Regional uptake of radioactivity, Striatum” value (from here on “Regional uptake … Striatum”) is listed as 1.25 % dose/g; the “S/Cereb (striatum to cerebellum ratio)” value came to 2.27. For the same compound, in series [2] (5 min), the “S/Cx (striatum to cortex ratio)” value came out at 1.49; the “Uptake of radioactivity, Blood” value is listed as 0.22 % dose/g; the “Uptake of radioactivity, Brain” value is recorded as 0.58 % dose/g. In series [2] (30 min), the “Regional uptake … Cerebellum” value was 0.12 % dose/g; the “Regional uptake … (Cx)” value was 0.19 % dose/g; the “Regional uptake … Striatum” value worked out at 0.36 % dose/g; the “S/Cereb (striatum to cerebellum ratio)” value stood at 3.0. Besides, in series [2] (30 min), the “S/Cx (striatum to cortex ratio)” value came out at 1.89; the “Uptake of radioactivity, Blood” value was 0.15 % dose/g; the “Uptake of radioactivity, Brain” value is reported as 0.13 % dose/g. In addition, in series [2] (60 min), the “Regional uptake … Cerebellum” value stood at 0.09 % dose/g; the “Regional uptake … (Cx)” value is recorded as 0.13 % dose/g; the “Regional uptake … Striatum” value is reported as 0.25 % dose/g; the “S/Cereb (striatum to cerebellum ratio)” value is reported as 2.78. Moreover, in series [2] (60 min), the “S/Cx (striatum to cortex ratio)” value is recorded as 1.92; the “Uptake of radioactivity, Blood” value was 0.11 % dose/g; the “Uptake of radioactivity, Brain” value is on record as 0.09 % dose/g. In series [2] (120 min), the “Regional uptake … Cerebellum” value amounted to 0.07 % dose/g; the “Regional uptake … (Cx)” value worked out at 0.09 % dose/g; the “Regional uptake … Striatum” value amounted to 0.13 % dose/g; the “S/Cereb (striatum to cerebellum ratio)” value amounted to 1.86. In addition, in series [2] (120 min), the “S/Cx (striatum to cortex ratio)” value turned out to be 1.86; the “Uptake of radioactivity, Blood” value came to 0.07 % dose/g; the “Uptake of radioactivity, Brain” value was 0.07 % dose/g. Besides, at rat brain DAT (setting [8]), the “Regional uptake … Cerebellum” value is reported as 0.09 % dose/g; the “Regional uptake … (Cx)” value is listed as 0.10 % dose/g; the “Regional uptake … Striatum” value turned out to be 0.11 % dose/g; the “S/Cereb (striatum to cerebellum ratio)” value came to 1.22. On rat brain DAT (setting [8]), the “S/Cx (striatum to cortex ratio)” value is 1.10; the “Uptake of radioactivity, Blood” value is 0.12 % dose/g; the “Uptake of radioactivity, Brain” value came to 0.07 % dose/g. Further, the “effect of RTI-113 on uptake in the striatum” value at rat brain DAT is given as “significantly blocked”. The “retention of radioactivity in the striatum” value with striatal DAT (awake rhesus monkey, PET images) was “no visible retention of radioactivity in the striatum”.

With `COC(=O)[C@H]1[C@@H](c2ccc(Br)cc2)C[C@@H]2CC[C@H]1N2C/C=C/CF` [6b, N-((E)-4-=fluorobut-2-en-1-yl)-2β-carbomethoxy-3β-4-(4-bromophenyl)nortropane], the Ki in series [1] came to 91 nM; at human SERT, 0.85 nM.
